This passage reports Ki results from US9469615B2, “Quinoxalines and AZA-quinoxalines as CRTH2 receptor modulators” (Merck Sharp & Dohme Corp., priority 2010, dated 2016).

The Ki is the dissociation constant of the complex between target and ligand, obtained from inhibition or displacement. A high value points to weaker binding.

The target of this assay is T1, hCRTH2 (Homo sapiens, UniProt Q9Y5Y4).
T1 construct: expressed in transfected cells; host or cells: HEK (human embryonic kidney) cells expressing hCRTH2; membrane preparation
T1 sequence (Q9Y5Y4 1-395): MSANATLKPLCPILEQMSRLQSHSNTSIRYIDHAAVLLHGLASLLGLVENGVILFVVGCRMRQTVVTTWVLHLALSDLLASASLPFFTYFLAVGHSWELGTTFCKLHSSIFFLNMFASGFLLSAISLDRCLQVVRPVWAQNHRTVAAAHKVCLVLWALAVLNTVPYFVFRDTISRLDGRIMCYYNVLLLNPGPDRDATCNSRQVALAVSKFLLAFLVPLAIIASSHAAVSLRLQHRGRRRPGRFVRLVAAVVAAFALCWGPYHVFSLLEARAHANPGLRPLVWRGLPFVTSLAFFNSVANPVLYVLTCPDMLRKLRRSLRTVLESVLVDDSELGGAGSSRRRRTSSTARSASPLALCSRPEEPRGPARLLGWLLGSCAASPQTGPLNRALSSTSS
Briefly: Radioligand binding assay ([3H]PGD2 competition, HEK-hCRTH2 membranes). The essentials:
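Membranes (8-20 μg protein) from HEK-hCRTH2 cells were incubated 60 min at room temperature with 3.0 nM [3H]PGD2 in 50 mM Tris-HCl pH 7.4, 1 mM EDTA, 2 mM MnCl2, 1% DMSO. Non-specific binding defined with 10 μM PGD2. Bound radioactivity counted after filtration.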

Where [1] appears, read: [3H]PGD2 binding, rated A-E (Table A).
Setting [2] is: [3H]PGD2 binding, values in text.

Structures are written as SMILES.

Turning to `O=C(O)CCCCc1nc2cc(C(=O)N3CCC4(CC3)CNC4)ccc2nc1-c1ccccc1` [15H, 5-[7-(2,7-diazaspiro-[3.5]non-7-ylcarbonyl)-3-phenylquinoxalin-2-yl]pentanoic acid], the inhibition constant Ki by setting is: under setting [1], 20.1 to 200 nM; under setting [2], 152 nM.
Molecule `C[C@@H](CCCc1nc2cc(C(=O)N3CCN(c4ccccc4)CC3)ccc2nc1-c1ccc(F)cc1)C(=O)O` [compound 524, (S)-5-(3-(4-fluorophenyl)-7-(4-phenylpiperazine-1-carbonyl)quinoxalin-2-yl)-2-methylpentanoic acid] showed an inhibitory constant (Ki) ([3H]PGD2 competition, Table B) of 2.1 to 20 nM.
Take `O=C(O)CCCCc1nc2cc(C(=O)N[C@@H]3CCCc4ccccc43)ccc2nc1-c1ccc(F)cc1` [compound 217, 3-(4-fluorophenyl)-7-[[(1,2,3,4-tetrahydro-1(R)-naphthalenyl)amino]carbonyl]-2-quinoxalinepentanoic acid]: the inhibition constant Ki is 0.1 to 2 nM under setting [1] and 1.2 nM under setting [2].
For `Cc1ccc(CNC(=O)c2ccc3nc(-c4ccc(Cl)cc4)c(CC4CCC(C(=O)O)C4)nc3c2)cc1` (centres unmarked) [compound 393, 3-((3-(4-chlorophenyl)-7-((4-methylbenzyl)carbamoyl)quinoxalin-2-yl)methyl)cyclopentane-carboxylic acid], the inhibition constant Ki ([3H]PGD2 competition, Table B) lay in the range of 2.1 to 20 nM.
In turn, `O=C(O)CCCCc1nc2cc(C(=O)N3CCC4(CCCc5ccccc54)C3)ccc2nc1-c1ccc(Cl)cc1` (centres unmarked) [compound 583, 5-(3-(4-chlorophenyl)-7-(3,4-dihydro-2H-spiro [naphthalene-1,3′-pyrrolidin]-1′-ylcarbonyl)quinoxalin-2-yl)pentanoic acid] yielded a Ki ([3H]PGD2 competition, Table B) of 0.1 to 2 nM.
`O=C(O)CCCCc1nc2cc(C(=O)N3CCn4c(nnc4C(F)(F)F)C3)ccc2nc1-c1ccc(Cl)cc1` [compound 436, 5-(3-(4-chlorophenyl)-7-(3-(trifluoromethyl)-5,6,7,8-tetrahydro-[1,2,4]triazolo[4,3-a]pyrazine-7-carbonyl)quinoxalin-2-yl)pentanoic acid] returned a Ki ([3H]PGD2 competition, Table B) of 20.1 to 200 nM.
For `O=C(O)CCCCc1nc2cc(C(=O)N[C@@H]3CCOc4ccccc43)ccc2nc1-c1ccc(F)cc1` [compound 491, (R)-5-(7-(chroman-4-ylcarbamoyl)-3-(4-fluorophenyl)quinoxalin-2-yl)pentanoic acid], for the setting “[3H]PGD2 competition, Table B”, the inhibitory constant (Ki) lay in the range of 0.1 to 2 nM.
On to `O=C(O)CCCCc1nc2cc(C(=O)N3CCC(c4ccccc4)C3)ccc2nc1-c1cccc(Cl)c1` (centres unmarked) [26F, 3-(3-chlorophenyl)-7-[(3-phenyl-1-pyrrolidinyl)carbonyl]-2-quinoxalinepentanoic acid], for which the Ki under setting [1] lay within 2.1 to 20 nM.
For `O=C(O)CCCCc1nc2cc(C(=O)N[C@H]3CCCc4cc(F)ccc43)ccc2nc1-c1ccccc1` [compound 385, (S)-5-(7-((6-fluoro-1,2,3,4-tetrahydronaphthalen-1-yl)carbamoyl)-3-phenylquinoxalin-2-yl)pentanoic acid], the Ki ([3H]PGD2 competition, Table B) fell in the range of 2.1 to 20 nM.
`O=C(O)CCCCc1nc2cc(C(=O)Nc3cccc(F)c3)ccc2nc1-c1cccc(F)c1` [3U, 3-(3-fluorophenyl)-7-[[(3-fluorophenyl)amino]carbonyl]-2-quinoxalinepentanoic acid]: under setting [1], the inhibition constant (Ki) lay within 20.1 to 200 nM.
With `CN(Cc1ccccc1)C(=O)c1ccc2nc(-c3ccc(Cl)cc3)c(CCCCC(=O)O)nc2c1` [compound 593, 5-(7-(benzyl(methyl)carbamoyl)-3-(4-chlorophenyl)quinoxalin-2-yl)pentanoic acid], the inhibition constant Ki ([3H]PGD2 competition, Table B) was in the range of 0.1 to 2 nM.
In turn, `COc1ccc(C2CN(C(=O)c3ccc4nc(-c5ccc(F)cc5)c(CCCCC(=O)O)nc4c3)C2)cc1` [compound 372, 5-(3-(4-fluorophenyl)-7-(3-(4-methoxyphenyl)azetidine-1-carbonyl)quinoxalin-2-yl)pentanoic acid] displayed a Ki ([3H]PGD2 competition, Table B) of 2.1 to 20 nM.
Consider `O=C(O)CCCCc1nc2cc(C(=O)NC3(c4ccccc4)CCC3)ccc2nc1-c1ccccc1` [15AM, 5-{3-phenyl-7-[(1-phenylcyclobutyl)carbamoyl]quinoxalin-2-yl}pentanoic acid], for which the Ki under setting [1] lay in the range of 2.1 to 20 nM.
As to `Cc1noc(C2CCCCN2C(=O)c2ccc3nc(-c4ccc(Cl)cc4)c(CCCCC(=O)O)nc3c2)n1` (centres unmarked) [compound 660, 5-(3-(4-chlorophenyl)-7-(2-(3-methyl-1,2,4-oxadiazol-5-yl)piperidine-1-carbonyl)quinoxalin-2-yl)pentanoic acid], the inhibitory constant (Ki) ([3H]PGD2 competition, Table B) was in the range of 20.1 to 200 nM.
Molecule `O=C(O)CCCCc1nc2cc(C(=O)N[C@@H]3CCCc4cc(Cl)ccc43)ccc2nc1-c1ccc(F)cc1` [compound 221, 7-[[(6-chloro-1,2,3,4-tetrahydro-1(R)-naphthalenyl)amino]carbonyl]-3-(4-fluorophenyl)-2-quinoxalinepentanoic acid] had a Ki under setting [1] of 0.1 to 2 nM.
With `CC1(C)CCC(NC(=O)c2ccc3nc(-c4ccccc4)c(CCCCC(=O)O)nc3c2)c2ccccc21` (centres unmarked) [compound 707, 5-(7-((4,4-dimethyl-1,2,3,4-tetrahydronaphthalen-1-yl)carbamoyl)-3-phenylquinoxalin-2-yl)pentatioic acid], the Ki ([3H]PGD2 competition, Table B) was in the range of 2.1 to 20 nM.
The molecule `C[C@@H](NC(=O)c1ccc2nc(-c3ccc(Cl)cc3)c(CCCCC(=O)O)nc2c1)c1cccnc1` [compound 182, 3-(4-chlorophenyl)-7-[[[1(R)-(3-pyridinyl)ethyl]amino]carbonyl]-2-quinoxalinepentanoic acid] displayed a Ki under setting [1] of 2.1 to 20 nM.
The molecule `COc1ccccc1C1CCN(C(=O)c2ccc3nc(-c4ccc(F)cc4)c(CCCCC(=O)O)nc3c2)CC1` [compound 361, 5-(3-(4-fluorophenyl)-7-(4-(2-methoxyphenyl)piperidine-1-carbonyl)quinoxalin-2-yl)pentanoic acid] displayed an inhibition constant Ki ([3H]PGD2 competition, Table B) of 2.1 to 20 nM.
`O=C(O)CCCCc1nc2cc(C(=O)N3CCC(c4ccccc4)C3)ccc2nc1-c1ccc(C(F)(F)F)cc1` (stereo in doubt) [compound 152, 7-[(3R)-phenyl-1-pyrrolidinyl)carbonyl]-3-[4-(trifluoromethyl)phenyl]-2-quinoxalinepentanoic acid] yielded a Ki under setting [1] of 2.1 to 20 nM and a Ki under setting [2] of 2.9 nM.
Molecule `Cc1cccc(N2CCN(C(=O)c3ccc4nc(-c5ccc(Cl)cc5)c(CCCCC(=O)O)nc4c3)CC2)c1C` [compound 627, 5-(3-(4-chlorophenyl)-7-(4-(2,3-dimethylphenyl)piperazine-1-carbonyl)quinoxalin-2-yl)pentanoic acid] yielded a Ki ([3H]PGD2 competition, Table B) of 0.1 to 2 nM.
As for `O=C(O)CCCCc1nc2cc(C(=O)N[C@@H]3CC(=O)Nc4ccc(F)cc43)ccc2nc1-c1ccccc1` [compound 713, (R)-5-(7-((6-fluoro-2-oxo-1,2,3,4-tetrahydroquinolin-4-yl)carbamoyl)-3-phenylquinoxalin-2-yl)pentanoic acid], the Ki ([3H]PGD2 competition, Table B) fell in the range of 2.1 to 20 nM.
`O=C(N[C@@H](c1ccc(Cl)cc1)C(F)(F)F)c1ccc2nc(-c3ccc(Cl)cc3)c(CC3CCC(C(=O)O)C3)nc2c1` (stereo partly drawn) [compound 406, 3-((3-(4-chlorophenyl)-7-(((S)-1-(4-chlorophenyl)-2,2,2-trifluoroethyl)carbamoyl)quinoxalin-2-yl)methyl)cyclopentane-carboxylic acid] came in with a Ki ([3H]PGD2 competition, Table B) of 2.1 to 20 nM.
The molecule `O=C(O)CCCCc1nc2cc(C(=O)N[C@@H]3CCCc4cc(F)ccc43)ccc2nc1-c1ccc(F)cc1` [compound 219, 3-(4-fluorophenyl)-7-[[(6-fluoro-1,2,3,4-tetrahydro-1(R)-naphthalenyl)amino]carbonyl]-2-quinoxalinepentanoic acid] returned a Ki under setting [1] of 0.1 to 2 nM.
